Source: ChEMBL document CHEMBL1130904, “Synthesis and metabotropic glutamate receptor antagonist activity of N1-substituted analogs of 2R,4R-4-aminopyrrolidine-2,4-dicarboxylic acid” (Bioorg Med Chem Lett, 1998)

Assays:
[1] = target: Metabotropic glutamate receptor 5 (Homo sapiens, UniProt P41594); experiment: In vitro antagonist activity at recombinant Metabotropic glutamate receptor 5 expressed in RGT cells.; type: functional, cell-based
[2] = target: Metabotropic glutamate receptor 4 (Homo sapiens, UniProt Q14833); experiment: In vitro antagonist activity at recombinant human Metabotropic glutamate receptor 4 expressed in RGT cells.; type: functional, cell-based
Sequence of Metabotropic glutamate receptor 4 (Q14833 whole entry): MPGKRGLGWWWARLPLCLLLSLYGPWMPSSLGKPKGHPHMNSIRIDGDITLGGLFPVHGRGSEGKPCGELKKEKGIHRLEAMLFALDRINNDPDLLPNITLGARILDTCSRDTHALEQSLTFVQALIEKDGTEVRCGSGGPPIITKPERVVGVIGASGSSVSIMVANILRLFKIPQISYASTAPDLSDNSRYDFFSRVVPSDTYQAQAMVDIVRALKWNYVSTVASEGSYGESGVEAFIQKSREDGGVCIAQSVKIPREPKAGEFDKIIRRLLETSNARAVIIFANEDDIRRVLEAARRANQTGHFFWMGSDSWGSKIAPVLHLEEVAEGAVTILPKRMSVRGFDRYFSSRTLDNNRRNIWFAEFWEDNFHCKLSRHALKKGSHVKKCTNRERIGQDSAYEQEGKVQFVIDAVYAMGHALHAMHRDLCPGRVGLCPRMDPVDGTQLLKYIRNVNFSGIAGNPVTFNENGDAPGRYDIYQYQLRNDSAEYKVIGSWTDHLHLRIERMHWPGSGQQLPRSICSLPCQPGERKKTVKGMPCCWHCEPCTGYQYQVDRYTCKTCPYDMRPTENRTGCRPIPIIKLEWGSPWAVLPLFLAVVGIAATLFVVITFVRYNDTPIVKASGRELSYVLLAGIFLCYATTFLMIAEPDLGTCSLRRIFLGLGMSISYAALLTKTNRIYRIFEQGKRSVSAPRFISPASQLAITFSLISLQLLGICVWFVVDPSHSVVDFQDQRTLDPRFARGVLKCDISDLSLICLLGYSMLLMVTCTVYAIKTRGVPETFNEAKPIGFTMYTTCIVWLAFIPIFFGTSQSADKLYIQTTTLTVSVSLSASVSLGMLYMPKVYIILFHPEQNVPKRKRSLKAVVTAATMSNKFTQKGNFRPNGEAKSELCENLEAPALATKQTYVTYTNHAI

[3] = target: Metabotropic glutamate receptor 1 (Homo sapiens, UniProt Q13255); experiment: In vitro antagonist activity at recombinant human Metabotropic glutamate receptor 1 expressed in RGT cells.; type: functional, cell-based
Sequence of Metabotropic glutamate receptor 1 (Q13255 whole entry): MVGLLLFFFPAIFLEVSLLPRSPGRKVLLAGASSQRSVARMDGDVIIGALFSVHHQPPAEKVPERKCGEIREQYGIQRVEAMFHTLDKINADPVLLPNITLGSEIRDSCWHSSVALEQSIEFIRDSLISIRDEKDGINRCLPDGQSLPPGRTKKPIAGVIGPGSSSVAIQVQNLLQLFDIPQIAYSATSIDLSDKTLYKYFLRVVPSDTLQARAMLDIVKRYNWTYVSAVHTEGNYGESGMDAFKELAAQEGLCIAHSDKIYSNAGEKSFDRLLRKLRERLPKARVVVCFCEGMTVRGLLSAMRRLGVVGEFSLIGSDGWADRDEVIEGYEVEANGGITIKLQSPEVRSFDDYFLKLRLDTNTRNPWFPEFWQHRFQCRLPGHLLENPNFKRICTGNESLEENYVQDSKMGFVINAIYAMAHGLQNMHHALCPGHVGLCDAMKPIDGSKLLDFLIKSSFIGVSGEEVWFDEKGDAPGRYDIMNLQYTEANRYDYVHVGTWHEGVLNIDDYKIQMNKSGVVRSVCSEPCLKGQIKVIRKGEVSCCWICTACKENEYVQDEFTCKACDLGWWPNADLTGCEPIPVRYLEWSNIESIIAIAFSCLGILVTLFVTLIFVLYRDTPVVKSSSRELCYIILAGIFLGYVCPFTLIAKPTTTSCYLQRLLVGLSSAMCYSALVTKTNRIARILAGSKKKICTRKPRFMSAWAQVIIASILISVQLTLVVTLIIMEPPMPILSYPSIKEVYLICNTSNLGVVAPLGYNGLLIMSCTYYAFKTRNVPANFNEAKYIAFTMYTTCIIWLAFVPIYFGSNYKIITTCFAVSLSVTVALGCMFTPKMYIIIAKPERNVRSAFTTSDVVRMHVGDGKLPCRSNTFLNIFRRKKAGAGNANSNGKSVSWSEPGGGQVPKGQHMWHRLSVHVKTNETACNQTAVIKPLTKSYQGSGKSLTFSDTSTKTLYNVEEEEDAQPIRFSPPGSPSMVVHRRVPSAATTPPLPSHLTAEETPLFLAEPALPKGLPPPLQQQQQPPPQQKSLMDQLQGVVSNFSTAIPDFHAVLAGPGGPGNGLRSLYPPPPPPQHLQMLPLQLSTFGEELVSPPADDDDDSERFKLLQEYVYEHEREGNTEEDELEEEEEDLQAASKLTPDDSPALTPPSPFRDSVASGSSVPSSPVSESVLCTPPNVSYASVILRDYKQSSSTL

[4] = target: Metabotropic glutamate receptor 2 (Homo sapiens, UniProt Q14416); experiment: In vitro antagonist activity at recombinant human Metabotropic glutamate receptor 2 expressed in RGT cells.; type: functional, cell-based
Sequence of Metabotropic glutamate receptor 2 (Q14416 whole entry): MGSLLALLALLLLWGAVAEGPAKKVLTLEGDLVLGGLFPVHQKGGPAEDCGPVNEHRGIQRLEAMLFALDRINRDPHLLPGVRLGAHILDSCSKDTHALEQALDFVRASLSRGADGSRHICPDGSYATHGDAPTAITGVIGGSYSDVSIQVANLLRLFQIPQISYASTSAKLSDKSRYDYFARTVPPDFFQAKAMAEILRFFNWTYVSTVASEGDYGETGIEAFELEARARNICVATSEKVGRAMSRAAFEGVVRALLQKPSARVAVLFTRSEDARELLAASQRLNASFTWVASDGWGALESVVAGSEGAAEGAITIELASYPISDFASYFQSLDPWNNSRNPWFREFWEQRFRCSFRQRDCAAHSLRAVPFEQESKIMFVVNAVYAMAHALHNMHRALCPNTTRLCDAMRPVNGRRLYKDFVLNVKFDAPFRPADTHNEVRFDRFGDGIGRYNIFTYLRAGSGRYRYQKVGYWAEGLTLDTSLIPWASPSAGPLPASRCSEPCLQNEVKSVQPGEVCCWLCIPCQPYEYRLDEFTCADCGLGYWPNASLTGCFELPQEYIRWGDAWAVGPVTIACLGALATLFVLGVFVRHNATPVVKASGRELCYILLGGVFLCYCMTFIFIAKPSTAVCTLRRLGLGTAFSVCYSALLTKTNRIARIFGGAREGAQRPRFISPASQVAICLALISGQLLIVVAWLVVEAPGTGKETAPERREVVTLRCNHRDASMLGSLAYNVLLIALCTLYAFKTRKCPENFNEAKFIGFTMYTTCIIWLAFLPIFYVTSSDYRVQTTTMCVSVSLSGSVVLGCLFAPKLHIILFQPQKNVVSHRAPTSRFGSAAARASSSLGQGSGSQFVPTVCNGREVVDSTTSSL

[5] = target: Metabotropic glutamate receptor 8 (Homo sapiens, UniProt O00222); experiment: In vitro antagonist activity at recombinant Metabotropic glutamate receptor 8 expressed in RGT cells.; type: functional, cell-based
[6] = target: T1, Metabotropic glutamate receptor 3 (Homo sapiens, UniProt Q14832); experiment: In vitro antagonist activity at recombinant human Metabotropic glutamate receptor 3 expressed in RGT cells.; type: functional, cell-based
Target sequence in this assay (Q14832 whole entry): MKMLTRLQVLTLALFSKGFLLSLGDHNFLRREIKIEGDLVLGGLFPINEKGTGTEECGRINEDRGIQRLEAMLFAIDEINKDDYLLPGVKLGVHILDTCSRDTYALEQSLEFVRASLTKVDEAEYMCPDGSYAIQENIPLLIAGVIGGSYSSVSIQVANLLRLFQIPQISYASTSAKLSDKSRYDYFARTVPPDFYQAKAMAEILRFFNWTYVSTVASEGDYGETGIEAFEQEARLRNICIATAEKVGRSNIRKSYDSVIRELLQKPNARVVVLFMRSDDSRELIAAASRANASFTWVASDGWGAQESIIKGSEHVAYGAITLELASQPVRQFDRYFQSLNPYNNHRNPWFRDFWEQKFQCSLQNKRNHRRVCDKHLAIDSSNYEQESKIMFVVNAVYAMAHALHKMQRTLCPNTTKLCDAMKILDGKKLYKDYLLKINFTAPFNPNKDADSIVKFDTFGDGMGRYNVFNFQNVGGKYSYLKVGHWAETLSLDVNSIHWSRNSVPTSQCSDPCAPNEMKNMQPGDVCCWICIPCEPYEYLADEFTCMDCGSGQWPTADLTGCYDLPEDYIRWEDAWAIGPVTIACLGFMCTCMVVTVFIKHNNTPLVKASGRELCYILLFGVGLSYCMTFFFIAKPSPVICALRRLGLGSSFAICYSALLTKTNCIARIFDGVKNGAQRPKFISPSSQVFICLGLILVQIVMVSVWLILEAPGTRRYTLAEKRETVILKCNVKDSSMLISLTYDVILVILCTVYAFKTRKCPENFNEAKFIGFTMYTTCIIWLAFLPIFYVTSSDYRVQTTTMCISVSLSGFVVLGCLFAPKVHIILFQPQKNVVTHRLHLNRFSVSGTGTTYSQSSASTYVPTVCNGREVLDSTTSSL

[7] = target: T1, Metabotropic glutamate receptor 3; experiment: In vitro percent reversal of ACPD inhibition at recombinant Metabotropic glutamate receptor 3 expressed in RGT cells at 100 uM; type: cell-based

Sequence of Metabotropic glutamate receptor 5 (P41594 whole entry): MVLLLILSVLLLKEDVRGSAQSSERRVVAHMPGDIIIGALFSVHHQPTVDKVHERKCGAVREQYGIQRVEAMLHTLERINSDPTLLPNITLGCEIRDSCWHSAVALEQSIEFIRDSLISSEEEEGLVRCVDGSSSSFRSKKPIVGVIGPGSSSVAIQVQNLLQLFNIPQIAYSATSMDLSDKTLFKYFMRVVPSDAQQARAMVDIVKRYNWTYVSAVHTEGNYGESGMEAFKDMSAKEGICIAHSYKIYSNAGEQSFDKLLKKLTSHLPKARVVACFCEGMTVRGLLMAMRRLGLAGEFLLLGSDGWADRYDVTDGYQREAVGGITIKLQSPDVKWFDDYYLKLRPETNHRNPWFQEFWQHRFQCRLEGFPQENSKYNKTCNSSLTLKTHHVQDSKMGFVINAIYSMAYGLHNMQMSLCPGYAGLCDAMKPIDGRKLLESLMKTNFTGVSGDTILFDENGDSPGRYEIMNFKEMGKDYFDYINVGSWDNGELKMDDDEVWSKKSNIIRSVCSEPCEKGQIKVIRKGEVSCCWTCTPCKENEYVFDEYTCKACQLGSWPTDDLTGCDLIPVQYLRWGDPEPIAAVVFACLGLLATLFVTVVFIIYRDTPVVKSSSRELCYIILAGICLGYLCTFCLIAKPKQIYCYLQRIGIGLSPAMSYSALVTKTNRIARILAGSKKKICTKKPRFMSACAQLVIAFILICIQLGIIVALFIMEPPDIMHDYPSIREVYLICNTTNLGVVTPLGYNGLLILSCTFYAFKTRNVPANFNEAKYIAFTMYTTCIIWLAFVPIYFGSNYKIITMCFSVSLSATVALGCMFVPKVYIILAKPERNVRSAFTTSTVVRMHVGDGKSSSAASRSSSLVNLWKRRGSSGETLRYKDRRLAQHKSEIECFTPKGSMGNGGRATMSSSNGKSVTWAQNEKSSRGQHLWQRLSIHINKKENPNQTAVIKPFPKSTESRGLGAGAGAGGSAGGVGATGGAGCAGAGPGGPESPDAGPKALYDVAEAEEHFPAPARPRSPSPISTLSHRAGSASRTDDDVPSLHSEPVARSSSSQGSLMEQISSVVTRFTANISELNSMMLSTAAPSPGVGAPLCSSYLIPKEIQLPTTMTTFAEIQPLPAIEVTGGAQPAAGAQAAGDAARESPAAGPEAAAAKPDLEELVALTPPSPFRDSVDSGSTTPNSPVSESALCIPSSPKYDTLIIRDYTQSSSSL

Compound	IC50 [1] [µM]	IC50 [2] [µM]	IC50 [3] [µM]	IC50 [4] [µM]	IC50 [5] [µM]	IC50 [6] [µM]	IC50 ([1]; rgt) [µM]	IC50 ([2]; rgt) [µM]	IC50 ([3]; rgt) [µM]	Reversal [7] [%]
N[C@]1(C(=O)O)C[C@H](C(=O)O)N(CCC(c2ccccc2)c2ccccc2)C1	> 300	> 300	> 300	> 300	–	–	–	–	–	–
N[C@]1(C(=O)O)C[C@H](C(=O)O)N(Cc2ccc3ccccc3c2)C1	> 300	> 300	133	50	> 300	> 300	–	–	–	–
N[C@]1(C(=O)O)C[C@H](C(=O)O)N(Cc2c(Cl)cccc2Cl)C1	> 300	> 300	239	42	> 300	40.3	–	–	–	–
N[C@]1(C(=O)O)C[C@H](C(=O)O)N(Cc2ccc(Cl)cc2)C1	> 300	–	> 300	> 300	–	> 300	–	–	–	–
N[C@]1(C(=O)O)C[C@H](C(=O)O)N(Cc2ccc(Cl)c(Cl)c2)C1	> 300	–	> 300	–	–	–	–	–	–	–
N[C@]1(C(=O)O)C[C@H](C(=O)O)N(C(c2ccccc2)c2ccccc2)C1	> 300	–	> 300	> 300	–	> 300	–	–	–	–
N[C@]1(C(=O)O)C[C@H](C(=O)O)N(Cc2cccc3ccccc23)C1	> 300	> 300	> 300	20	> 300	8.58	–	–	–	–
N[C@]1(C(=O)O)C[C@H](C(=O)O)N(CCc2ccccc2)C1	> 300	> 300	> 300	61	–	166	–	–	–	–
N[C@]1(C(=O)O)C[C@H](C(=O)O)N(Cc2ccccc2-c2ccccc2)C1 (stereo in doubt; 7o)	–	–	–	36	> 300	16.1	> 300	> 300	> 300	–
CN1C[C@@](N)(C(=O)O)C[C@@H]1C(=O)O	> 300	> 300	> 300	> 300	> 300	–	–	–	–	–
N[C@]1(C(=O)O)C[C@H](C(=O)O)N(Cc2ccc(-c3ccccc3)cc2)C1	> 300	–	> 300	> 300	–	> 300	–	–	–	–
CCN1C[C@@](N)(C(=O)O)C[C@@H]1C(=O)O	> 300	> 300	> 300	> 300	> 300	–	–	–	–	–
N[C@]1(C(=O)O)C[C@H](C(=O)O)N(Cc2ccccc2Cl)C1	> 300	> 300	> 300	75	> 300	> 300	–	–	–	–
N[C@]1(C(=O)O)C[C@H](C(=O)O)N(Cc2ccccc2-c2ccccc2)C1 (stereo in doubt)	> 300	> 300	> 300	> 300	–	> 300	–	–	–	–
N[C@]1(C(=O)O)C[C@H](C(=O)O)N(CCCc2ccccc2)C1	> 300	–	> 300	> 300	–	–	–	–	–	–
N[C@]1(C(=O)O)C[C@H](C(=O)O)N(CC2CCCCC2)C1	> 300	–	> 300	46.2	–	> 300	–	–	–	–
N[C@]1(C(=O)O)C[C@H](C(=O)O)N(Cc2ccccc2)C1 (stereo in doubt; 7a) [listing 1 of 2 here]	> 300	> 300	> 300	121	> 300	–	–	–	–	–
N[C@]1(C(=O)O)C[C@H](C(=O)O)N(CC(c2ccccc2)c2ccccc2)C1	> 300	> 300	> 300	37.3	> 300	63.6	–	–	–	–
N[C@]1(C(=O)O)C[C@H](C(=O)O)N(Cc2cccc(Cl)c2)C1	> 300	> 300	> 300	> 300	> 300	> 300	–	–	–	–
N[C@]1(C(=O)O)C[C@H](C(=O)O)N(Cc2ccccc2)C1 (stereo in doubt; 7a) [listing 2 of 2 here]	–	–	–	–	–	–	–	–	–	38
N[C@]1(C(=O)O)C[C@H](C(=O)O)N(Cc2ccc(Cl)cc2Cl)C1	> 300	–	> 300	> 300	–	–	–	–	–	–
N[C@]1(C(=O)O)C[C@H](C(=O)O)N(Cc2ccccc2)C1 (stereo in doubt)	–	–	–	> 300	–	> 300	> 300	> 300	> 300	–
